Molecules are shown by their SMILES.

Assay [1] deals with T1, 14-3-3σ/ERα (Homo sapiens, UniProt P03372+P31947).
T1 construct: The 14-3-3 σ isoform (full-length for mass spectrometry and fluorescence anisotropy assays, ΔC for crystallography); made in house; host or cells: E. coli Rosetta 2(DE3)pLysS, pPROEX HTb vector
Nature of the assay: Fluorescence anisotropy compound titration, FAM-labeled ERα peptide. It is filed as binding. The conditions noted are these: 10 nM ERα-FAM labeled peptide, 1 µM 14-3-3σ, overnight incubation (24 h); read-out: EC50 value ERα (FA compound titration). The source says: (§1) Two orthogonal assays were developed for screening. For the primary assay, mass spectrometry (MS) was used to monitor the formation of the covalent bond between the compound and the native cysteine (Cys38 on 14-3-3σ) (Figure 1D). The assay was first performed in the absence of peptide to determine binding to 14-3-3σ only (apo screening, D1) and then in the presence of both 14-3-3σ and the peptide as an indication of how much the peptide stabilized compound binding (D2). […] As a secondary assay, fluorescence anisotropy (FA) was used. In this case, compounds were titrated to mixtures of 14-3-3σ and FAM-labeled peptides. […] Thus, the two assays are highly complementary; the MS assay reports on compound binding and the FA assay reports on peptide binding. […]
diluted in buffer (10 mM HEPES, pH 7.5, 150 mM NaCl, 0.1% Tween20, 1 mg/mL Bovine Serum Albumin (BSA; Sigma-Aldrich). Final DMSO in the assay was always 1%. Dilution series of 14-3-3 proteins or compounds were made in […]
Compound titrations were made by titrating the compound in a 2-fold dilution series (starting at 500 or 1000 µM) to a mix of fluorescein-labeled peptide (10 nM) and 14-3-3σ (concentration at approximately the EC20 to EC30 value of the protein-peptide complex; 1 µM for ERα and 5 µM for C-RAF). Using the ~EC25 value makes the assay sensitive for measuring an increase in PPI formation. Fluorescence anisotropy measurements were performed directly and after overnight incubation at room temperature. […]
Wells containing only FAM-peptide were used to set as G-factor at 35 mP. Data reported are at endpoint. EC50 and apparent Kd values were obtained from fitting the data with a four-parameter logistic model (4PL) in GraphPad Prism 7 for Windows. Data was obtained and averaged based on either three (compound titrations) or two (protein titrations) independent experiments.

A further assay addresses T2, 14-3-3σ (Homo sapiens, UniProt P31947).
T2 construct: The 14-3-3 σ isoform (full-length for mass spectrometry and fluorescence anisotropy assays, ΔC for crystallography); made in house; host or cells: E. coli Rosetta 2(DE3)pLysS, pPROEX HTb vector
T2 sequence (P31947 1-248): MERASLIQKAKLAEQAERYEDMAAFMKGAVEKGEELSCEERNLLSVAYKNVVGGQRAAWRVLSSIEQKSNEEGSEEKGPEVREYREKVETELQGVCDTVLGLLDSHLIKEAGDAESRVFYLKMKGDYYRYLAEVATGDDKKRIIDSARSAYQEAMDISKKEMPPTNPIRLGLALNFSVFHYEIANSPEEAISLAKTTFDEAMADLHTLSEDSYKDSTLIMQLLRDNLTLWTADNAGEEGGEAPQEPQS
Kind of assay: Mass spectrometry dose response, compound binding to 14-3-3σ in the absence of peptide (apo). The conditions noted are these: 100 nM compound, 100 nM 14-3-3σ.
Excerpt: as §1
(§2) Mass spectrometry dose response assays were performed on a Waters Acquity UPLC/ Xevo G2-XS Q-Tof mass spectrometer. A Waters UPLC Protein BEH-C4 Column (300 Å, 1.7 μm, 2.1 mm x 50 mm) was used to desalt the samples prior to application on the mass spectrometer. For 19-point MS dose responses, 50 mM compound stocks in DMSO were serially diluted in 3-fold increment in a master plate, then 1000 nl of the compounds were transferred in the assay plates. Master mixes containing 100 nM full-length wild type 14-3-3σ in the absence or presence of […]
(§3) Assay buffer was TRIS (10 mM, pH 8.0) and final volume per well was 50 μl, with final top concentration of compounds dose response series at 1 mM. The reaction mixtures were incubated for 1h at rt before subjected to MS. Four measurements (1h, 8h, 16h, 24h) were performed for time-course experiments. The injection volume for each sample was 6 μl. 24 μl of sample were needed for the time-course experiments, so the total volume in the assay plate was adjusted to 50 μl, to account for the dead volume in the injections. Data collection and automated processing followed a custom workflow, as previously described.1 z Plots were created using GraphPad Prism with the log(agonist) vs. response (variable slope, four parameters) fitting model. […]

A further assay concerns the target T3, 14-3-3σ/C-RAF (Homo sapiens, UniProt P31947).
T3 construct: The 14-3-3 σ isoform (full-length for mass spectrometry and fluorescence anisotropy assays, ΔC for crystallography); made in house; host or cells: E. coli Rosetta 2(DE3)pLysS, pPROEX HTb vector
T3 sequence (P31947 1-248): T2 sequence (P31947 1-248)
Kind of assay: Mass spectrometry dose response, compound binding to 14-3-3σ in the presence of C-RAF phosphopeptide. The conditions noted are these: 100 nM compound, 100 nM 14-3-3σ, C-RAF peptide 18 µM.
Excerpt: as §1, §2, §3

Assay [2] deals with T1, 14-3-3σ/ERα. Nature of the assay: Mass spectrometry dose response, compound binding to 14-3-3σ in the presence of ERα phosphopeptide. The note with it: 100 nM compound, 100 nM 14-3-3σ, ERα-peptide 2 µM.
Excerpt: as §1, §2, §3

For `O=C(CCl)NCC1CCN(C(=O)C2(Nc3ccccc3)CCCCC2)CC1` [compound 121], the EC50 at 14-3-3σ/ERα [1] is above 150 µM. At 14-3-3σ, the “Percentage (%) bound of compound to 14-3-3σ, APO 1h” value (from here on “Percentage (%) bound … APO 1h”) stood at 0%; the “Percentage (%) bound of compound to 14-3-3σ, APO 8h” value (shortened to “Percentage (%) bound … APO 8h”) is reported as 0%; the “Percentage (%) bound of compound to 14-3-3σ, APO 16h” value (“Percentage (%) bound … APO 16h” below) was 0%; the “Percentage (%) bound of compound to 14-3-3σ, APO 24h” value (shortened to “Percentage (%) bound … APO 24h”) worked out at 0%. At 14-3-3σ/C-RAF, the “Percentage (%) bound of compound to 14-3-3σ, CRAF 1h” value (“Percentage (%) bound … CRAF 1h” for short) turned out to be 0% and the “Percentage (%) bound of compound to 14-3-3σ, CRAF 8h” value (“Percentage (%) bound … CRAF 8h” below) was determined as 0%. Further, on 14-3-3σ/C-RAF (24h), the “Percentage (%) bound of compound to 14-3-3σ, CRAF 24h” value (shortened to “Percentage (%) bound … CRAF 24h”) is reported as 0%. The “Percentage (%) bound … CRAF 24h” value on 14-3-3σ/C-RAF (head prints 24h) was found to be 0%. Besides, at 14-3-3σ/ERα [2], the “Percentage (%) bound of compound to 14-3-3σ, ERα 1h” value (from here on “Percentage (%) bound … ERα 1h”) was found to be 0%; the “Percentage (%) bound of compound to 14-3-3σ, ERα 8h” value (shortened to “Percentage (%) bound … ERα 8h”) worked out at 0%; the “Percentage (%) bound of compound to 14-3-3σ, ERα 16h” value (“Percentage (%) bound … ERα 16h” below) turned out to be 0%; the “Percentage (%) bound of compound to 14-3-3σ, ERα 24h” value (shortened to “Percentage (%) bound … ERα 24h”) was found to be 0%.
Take `Cl.O=C(CCl)NCC1CCN(C(=O)C2(Nc3ccccc3)CCNCC2)CC1` [compound 133]: at 14-3-3σ/ERα [1], the EC50 stood at 115 µM. In addition, at 14-3-3σ, the “Percentage (%) bound … APO 1h” value came out at 0.7%; the “Percentage (%) bound … APO 8h” value is reported as 1.1%; the “Percentage (%) bound … APO 16h” value stood at 1.2%; the “Percentage (%) bound … APO 24h” value is 10.3%. In addition, at 14-3-3σ/C-RAF, the “Percentage (%) bound … CRAF 1h” value was found to be 0% and the “Percentage (%) bound … CRAF 8h” value was 1.0%. For the same compound, the “Percentage (%) bound … CRAF 24h” value on 14-3-3σ/C-RAF (24h) is listed as 1.1%. Besides, on 14-3-3σ/C-RAF (head prints 24h), the “Percentage (%) bound … CRAF 24h” value was 1.1%. Moreover, on 14-3-3σ/ERα [2], the “Percentage (%) bound … ERα 1h” value is 4.5%; the “Percentage (%) bound … ERα 8h” value is on record as 12.9%; the “Percentage (%) bound … ERα 16h” value was found to be 26.7%; the “Percentage (%) bound … ERα 24h” value was 47.0%.
As for `Cl.NC1CCC(Oc2ccccc2)(C(=O)N2CCC(CNC(=O)CCl)CC2)CC1` (stereo not shown) [compound 139], the EC50 on 14-3-3σ/ERα [1] was above 150 µM. At 14-3-3σ, the “Percentage (%) bound … APO 1h” value was determined as 0%; the “Percentage (%) bound … APO 8h” value was determined as 0%; the “Percentage (%) bound … APO 16h” value is 2.0%; the “Percentage (%) bound … APO 24h” value is given as 2.0%. Besides, on 14-3-3σ/C-RAF, the “Percentage (%) bound … CRAF 1h” value is reported as 0% and the “Percentage (%) bound … CRAF 8h” value is on record as 0%. Further, the “Percentage (%) bound … CRAF 24h” value at 14-3-3σ/C-RAF (24h) stood at 1.0%. Moreover, at 14-3-3σ/C-RAF (head prints 24h), the “Percentage (%) bound … CRAF 24h” value stood at 0%. Besides, at 14-3-3σ/ERα [2], the “Percentage (%) bound … ERα 1h” value stood at 0%; the “Percentage (%) bound … ERα 8h” value came out at 0%; the “Percentage (%) bound … ERα 16h” value is reported as 0%; the “Percentage (%) bound … ERα 24h” value was found to be 1.0%.
For `Cl.NC1CCC(Nc2ccccc2)(C(=O)N2CCC(CNC(=O)CCl)CC2)CC1` (stereo not shown) [compound 141], at 14-3-3σ/ERα [1], the EC50 is above 150 µM. For the same compound, on 14-3-3σ, the “Percentage (%) bound … APO 1h” value was 0%; the “Percentage (%) bound … APO 8h” value is given as 0%; the “Percentage (%) bound … APO 16h” value was 0.8%; the “Percentage (%) bound … APO 24h” value turned out to be 25.6%. Further, on 14-3-3σ/C-RAF, the “Percentage (%) bound … CRAF 1h” value worked out at 1.0% and the “Percentage (%) bound … CRAF 8h” value is given as 2.9%. The “Percentage (%) bound … CRAF 24h” value at 14-3-3σ/C-RAF (24h) turned out to be 22.1%. The “Percentage (%) bound … CRAF 24h” value at 14-3-3σ/C-RAF (head prints 24h) stood at 16.3%. Moreover, on 14-3-3σ/ERα [2], the “Percentage (%) bound … ERα 1h” value is 1.0%; the “Percentage (%) bound … ERα 8h” value is listed as 10.2%; the “Percentage (%) bound … ERα 16h” value is 83.3%; the “Percentage (%) bound … ERα 24h” value was found to be 89.9%.

The values above are taken from PMC10515640, “Structure-Based Optimization of Covalent, Small-Molecule Stabilizers of the 14-3-3σ/ERα Protein–Protein Interaction from Nonselective Fragments” (Journal of the American Chemical Society, 2023).
